Assay results taken from US10399976B2, “Dihydropyrrolopyridine inhibitors of ROR-gamma” (Vitae Pharmaceuticals, LLC, priority 2014, dated 2019).

Key:
[1] = molecular target: recombinant RORγ Ligand Binding Domain (LBD) (Homo sapiens (Human), UniProt P51449); test: Radio-Ligand RORγ Binding Assay (Assay 1); conditions: cell-free competition with 25-hydroxy [26,27-3H]-cholesterol, SPA; read-out: RORγ Binding Ki Range*
Procedure: Radio-Ligand ROR ? Binding Assay (Assay 1)
Compounds of the present invention were tested for ability to bind to ROR ? in a cell-free competition assay with commercially available radio-ligand (RL), 25-hydroxy [26,27-^3H]-cholesterol (PerkinElmer, Cat. # NET674250UC), for a ligand binding site on a recombinant ROR ? Ligand Binding Domain (LBD) protein expressed as a 6×His-Glutathione-S-Transferase (GST) fusion. […] The plate was shaken at 700 rpm for 20 min and incubated for 10 min at rt, after which 40 μL of poly-Lys YSi SPA beads (PerkinElmer, Cat. # RPNQ0010) were added to achieve 50 μg of the beads per well. The plate was incubated on an orbital shaker for 20 min and then for 10 min without agitation at rt. SPA signal for tritium beta radiation was registered on PerkinElmer Microbeta plate reader. […] The percent inhibition vs. concentration data were fit into a four-parameter model, and IC50 values were calculated from the fit as the concentrations corresponding to the inflection points on the dose-response curves.

[2] = molecular target: full-length RORγt in Jurkat cells (Homo sapiens (Human), UniProt P51449); test: RORγt 5×RORE Assay in Jurkat Cells (Assay 2); assay type: cell-based; conditions: Nanoluc luciferase reporter, 16-18 hrs, read-out: RORγt5X IC50 Range*
Procedure: [formula] ROR ? t 5×RORE Assay in Jurkat Cells (Assay 2)
Compounds of the present invention were tested for ROR ? inverse agonist activity in a cell-based, transcriptional activity assay. […] (Promega, Cat. # N1021) using KpnI and HindIII restriction sites. […] Luciferase activity in the conditioned supernatants was determined with NanoGlo® assay reagents (Promega, Cat.# N1130).

Chain of recombinant RORγ Ligand Binding Domain (LBD) (P51449 269-508): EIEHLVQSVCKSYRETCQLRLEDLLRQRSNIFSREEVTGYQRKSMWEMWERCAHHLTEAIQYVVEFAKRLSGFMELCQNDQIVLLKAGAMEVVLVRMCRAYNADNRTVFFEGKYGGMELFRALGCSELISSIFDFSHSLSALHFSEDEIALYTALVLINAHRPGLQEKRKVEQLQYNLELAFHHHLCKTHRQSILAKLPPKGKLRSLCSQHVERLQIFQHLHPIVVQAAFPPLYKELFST
Chain of full-length RORγt in Jurkat cells (P51449 other isoform, or with tags, fused parts or gaps): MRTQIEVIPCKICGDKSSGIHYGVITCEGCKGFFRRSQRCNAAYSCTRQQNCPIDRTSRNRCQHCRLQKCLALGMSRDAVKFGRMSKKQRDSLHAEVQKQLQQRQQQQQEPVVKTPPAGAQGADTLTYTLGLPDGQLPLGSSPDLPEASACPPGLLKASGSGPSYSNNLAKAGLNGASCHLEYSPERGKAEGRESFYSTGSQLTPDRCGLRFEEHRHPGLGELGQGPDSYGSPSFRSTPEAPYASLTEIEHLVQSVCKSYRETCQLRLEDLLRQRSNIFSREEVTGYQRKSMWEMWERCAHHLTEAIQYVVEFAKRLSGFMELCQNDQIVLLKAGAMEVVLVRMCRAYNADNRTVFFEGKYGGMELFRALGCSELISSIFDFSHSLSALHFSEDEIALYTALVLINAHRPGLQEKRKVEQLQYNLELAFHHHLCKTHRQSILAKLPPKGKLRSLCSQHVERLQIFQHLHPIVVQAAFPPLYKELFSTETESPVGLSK

Ki [1] [nM] | IC50 [2] [nM] | SMILES
100 to 1000 | – | CC(C)[C@H]1c2ncc(C(=O)NCc3cnn(C)c3)cc2CN1Cc1ccc(C(F)(F)F)cc1 [Compound 76]
> 1000 | – | CC(C)[C@H]1c2ncc(C(=O)NCc3ccnn3C)cc2CN1Cc1ccc(C(F)(F)F)cc1 [Compound 73]
< 100 | 100 to 1000 | CCS(=O)(=O)n1cc(CNC(=O)c2cnc3c(c2)CN(Cc2ccc(C(F)(F)F)cc2)[C@H]3C(C)C)cn1 [Compound 133]
